# Measurements as given in patent US10793531B2, “Triazole derivatives and their use as PDE4 activators” (MIRONID LIMITED, priority 2015, dated 2020).
# Molecular target: T1, full-length human PDE4D5 (Homo sapiens, UniProt Q08499)
# T1 construct: stably expressed the full-length human PDE4D5, PDE4A4 and PDE4B1 long isoforms; made in house; cytosol fraction of the lysate
# Assay: PDE4 radio-assay, PDE4D5 long form activation (Experiment 1)
# Type: biochemical
# Conditions: n ≥ 2, read-out: PDE4D5 activity (mean % increase in counts over basal activity without added compound)
# Procedure: One suitable method of detecting whether or not a compound is capable of serving as an activator of a PDE4 long form is using a two-step radio-assay procedure described in Experiment 1. In summary, the method involves incubating a PDE4 long form with a test small molecule activator, together with [^3H]-labelled cAMP to assess alterations in the breakdown of cAMP to the 5′-adenosine monophosphate (5′-AMP) product. A sample of the reaction mixture from such an incubation is subsequently treated with snake venom 5′-nucleotidase to allow conversion of the nucleotide [^3H]-labelled 5′-AMP to the uncharged nucleoside [^3H]-labelled adenosine, which can be separated and quantified to assess PDE4 activity and the effect of the test compound (Thompson, W. J. and Appleman, M. M. Biochemistry 10: 311-316, 1971, with some modifications as described in: Marchmont, R. J. and Houslay, M. D. Biochem J. 187: 381-92, 1980).
# HEK 293 cells were transfected with pDEST™ PDE4 expression vectors using Lipofectamine LTX/Plus reagent (Invitrogen) as outlined by the manufacturer and clonal isolates expanded to obtain cell lines that stably expressed the full-length human PDE4D5, PDE4A4 and PDE4B1 long isoforms and the full length human PDE4B2 short isoform. These were called the HEK-PDE4D5, HEK-PDE4A4, HEK-PDE4B1 and HEK-PDE4B2 cell lines, respectively.
# HEK-PDE4D5 cells were seeded out in 100 mm plates and incubated at 37° C. in an atmosphere of 5% CO2, 95% air. Cell lysates were prepared using KHEM buffer [50 mM KCl, 10 mM EGTA, 50 mM HEPES (pH 7.2), 1.92 mM MgCl2].
# To prepare the cell lysates, the 100 mm plates containing the cells were placed on ice and washed with ice-cold PBS (phosphate buffered saline, pH 7.4). KHEM buffer (500 μl) was added to the cells. Cells were then scraped off the plate and triturated using a needle (BD Microlance™ 0.8, 40 mm). The lysed cells were then centrifuged at 2000 rpm for 10 minutes to remove cell debris and the supernatant (cell lysate containing recombinant PDE4D5) was transferred to a fresh tube and kept on ice.
# The cell lysate containing recombinant PDE4D5 was transferred into a centrifuge tube and placed into an ultracentrifuge (BECKMAN COULTER) and spun at high speed (100,000 g) for 30 minutes at 4° C. The cytosol fraction was then collected and its protein amount determined using a BCA protein assay.
# PDE assays were performed using a final concentration of 10 mM Tris/5 mM MgCl2 and 1 μM [3H]-cAMP (Perkin Elmer) plus PDE4D5 cell lysate cytosol fraction, containing over-expressed PDE4D5, with and without test compound. Incubations were performed at 30° C. for 5 minutes. The samples were then placed in a boiling water bath for 2 minutes to denature the PDE enzyme, and returned to ice. Samples were allowed to cool for 1.0 min after which snake venom 5′-nucleotidase (25 μl, 1 mg/ml; Sigma) was added. The tubes were vortexed and incubated in a water bath at 30° C. for 10 minutes, to attain conversion of [3H]-5′-AMP to [3H]-adenosine, and then placed on ice. Dowex ion exchange resin (Sigma) prepared as a 1:1 Dowex:water stock was thoroughly re-suspended and diluted 2:1 with ethanol. The resulting Dowex suspension (0.4 ml) was added to each tube. Tubes were vortexed to mix and then incubated on ice for at least 15 minutes before a final vortex. The Dowex resin was pelleted by centrifugation at 13,000 g at 4° C. for 3 minutes and 150 μl of the supernatant was removed to an Eppendorf tube containing 1 ml of ScintiSafe3 scintillation fluid (Fisher). Tubes were vortexed thoroughly to mix and the recovered [3H]-adenosine was quantified by measuring counts over 1 minute in a scintillation counter.
# T1 sequence (Q08499 1-745 isoform Q08499-6): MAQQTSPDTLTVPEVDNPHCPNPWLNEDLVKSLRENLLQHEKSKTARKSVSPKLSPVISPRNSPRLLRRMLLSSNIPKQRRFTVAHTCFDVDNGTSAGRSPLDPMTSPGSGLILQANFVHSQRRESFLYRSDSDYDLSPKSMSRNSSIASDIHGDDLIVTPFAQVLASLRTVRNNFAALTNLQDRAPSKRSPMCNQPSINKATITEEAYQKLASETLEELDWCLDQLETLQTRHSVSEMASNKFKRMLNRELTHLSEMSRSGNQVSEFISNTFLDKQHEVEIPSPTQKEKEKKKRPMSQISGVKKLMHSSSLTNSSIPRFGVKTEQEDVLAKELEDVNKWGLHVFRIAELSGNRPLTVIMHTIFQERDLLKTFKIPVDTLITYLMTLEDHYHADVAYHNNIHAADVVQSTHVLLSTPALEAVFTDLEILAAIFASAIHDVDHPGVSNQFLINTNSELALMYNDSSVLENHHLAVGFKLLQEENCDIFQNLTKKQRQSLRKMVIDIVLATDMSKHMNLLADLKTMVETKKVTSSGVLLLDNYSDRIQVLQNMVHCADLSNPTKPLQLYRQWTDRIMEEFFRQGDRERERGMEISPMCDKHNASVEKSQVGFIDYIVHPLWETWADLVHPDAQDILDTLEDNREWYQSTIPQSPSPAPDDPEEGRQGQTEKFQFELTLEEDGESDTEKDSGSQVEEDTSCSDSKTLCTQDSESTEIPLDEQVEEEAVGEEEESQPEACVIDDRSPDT
compound,measurement,setting,value
"CCc1nc(-c2ccc(Cl)c(F)c2)nn1CC(=O)NCc1cccc(F)c1 [Example A, N-(3-Fluorobenzyl)-2-[3-(4-chloro-3-fluorophenyl)-5-ethyl-1H-1,2,4-triazol-1-yl]acetamide]",activation at 1 µM,1 μM compound,-3.6%
same,activation at 3 µM,3 μM compound,-0.2%
same,activation at 10 µM,10 μM compound,12.5%
same,activation at 30 µM,30 μM compound,39.7%
same,activation at 50 µM,50 μM compound,91.9%
